Consider 14 molecules from US12448388B2, “PRMT5 inhibitors and uses thereof” (Gilead Sciences, Inc., priority 2023, dated 2025).

Structures are written as SMILES. Read-outs that look alike come from different tables or passages of the source.

Series [1] is described as follows: Pharmacokinetics in cassette in male cynomolgus monkeys for Kp measurement. In kind it is in vivo. The note with it: cynomolgus monkey, 0.5 mg/kg, intravenous. The protocol:
F.1 Test Animal: Cynomolgus Monkeys from Labcorp 8298417 Maintained at Labcorp-Madison
F.2 Pharmaceutical Formulation and Administration
Test compound was dissolved in the vehicle of 10% DMSO, 10% ethanol, 40% polyethylene glycol 300, and 40% propylene glycol to get 0.5 mg/mL test compound solution. The compound was administered by intravenous administration at a dose of 1 mL/kg. The intravenous dose was administered as a bolus injection followed by an approximately 2-hour infusion via an indwelling catheter in a saphenous or cephalic vein. Fasting was not required.
• Collection time: • PK for Plasma: Predose, 0.25, 1, 1.5 and 2 hours postdose (based on start of infusion) • PK for Whole Blood: 1.5 hour postdose • Anticogulant: K2EDTA • Volume: • PK for Plasma: Approximately 0.5 mL • PK for Whole Blood: Approximately 0.1 mL • Collection Site: Femoral vein; saphenous or cephalic vein

The next series concerns the target T1, hERG ion channel (Homo sapiens, UniProt Q12809).
T1 construct: host or cells: HEK293
The series can be described thus: hERG assay (automated patch clamp, QPatch HT). In kind it is cell-based. The note with it: HEK293 hERG, * = accurate hERG measurement may be limited by compound solubility. Here is the method: Cell lines and cell culture: The HEK293 cell line stably expressing the hERG ion channel was provided from Charles River laboratories. Cells were maintained in tissue culture incubators per Charles River Laboratories SOP. Stocks were maintained in cryogenic storage. HEK293 cells were stably transfected with hERG cDNA.
Automated Patch Clamp Procedures: In preparation for a recording session, intracellular solution was loaded into the intracellular compartments of the QPlate and cell suspension was pipetted into the extracellular compartments. After establishment of a whole-cell configuration, membrane currents were recorded using up to 48 parallel patch clamp amplifiers in the QPatch HT® system. The current records were sampled at 2000 Hz and low-pass Bessel filtered at 400 Hz.
Valid whole-cell recordings met the following criteria: • 1. Membrane resistance ≥200 MΩ. • 2. Leak current 25% channel current or subtracted.
hERG Test Procedures: Onset and block of hERG current was measured using a stimulus voltage pattern consisting of a 500 ms prepulse to −40 mV (leakage subtraction), a 2-second activating pulse to +40 mV followed by a 2-second test pulse to −40 mV. The pulse pattern was repeated continuously at 10 s intervals from a holding potential of −80 mV. Peak tail current was measured during the −40 mV test pulse. Leakage current was calculated from the current amplitude evoked by the −40 mV prepulse and subtracted from the total membrane current record.
Data Analysis: Data acquisition and analysis were performed using the QPatch Assay Software (Sophion Bioscience A/S, Denmark). Steady state was defined by the limiting constant rate of change with time (linear time dependence). The steady state before and after test article application were used to calculate the percentage of current inhibited at each concentration. Run down, a time-dependent reduction of current amplitude, may be compensated for in the QPatch Assay Software using standard system tools. Concentration-response data was fit to an equation of the following form: […]
Where [Test] is the concentration of test compound, IC50 is the concentration of the test compound producing half-maximal inhibition, N is the Hill coefficient and % Block is the percentage of current inhibited at each concentration of the test article. Nonlinear least squares fits will be solved with the Solver add-in for Excel 2000 or later (Microsoft, Redmond, WA).

Series [2] has as its system LU99 (lung, giant cell carcinoma; MTAP-Deleted). Nature of the series: In vitro cell viability assay (CellTiter-Glo, 9 days), LU99. In kind it is cell-based. The note with it: Homo sapiens, Lu-99, 216 h, 9-day treatment. The protocol:
Some Compounds of the Disclosure were tested in Calu-6 (Vendor: ATCC; Cat #HTB-56; Description: lung, adenocarcinoma), LU99 (Vendor: JCRB; Cat #JCRB0080; Description: lung, giant cell carcinoma), SW780 (Vendor: ATCC; Cat #CRL-2169; Description: bladder, urothelial carcinoma), and BxPC-3 (Vendor: ATCC; Cat #CRL-1687; Description: pancreas, adenocarcinoma) cellular viability assays according to the general protocol. Seeded cells into 96-well plate and incubated overnight. Seeded an additional 10 wells per cell line in an additional 96-well plate for assessing Time Zero luminescence and incubated overnight. To treatment plates, added compounds into each well using Tecan D300e dispenser (nine three-fold dilutions starting at […]) and incubated for 9 days. Time Zero (no compound treatment, luminescence assessed on day 1) and 9-day treatment (luminescence assessed on day 10) plates were assessed using the same CellTiter-Glo® substrate protocol. Thawed CellTiter-Glo® Buffer and lyophilized CellTiter-Glo® substrate and equilibrated to room temperature prior to use. Transferred 100 ml CellTiter-Glo® Buffer into amber bottle containing CellTiter-Glo® substrate to reconstitute the lyophilized enzyme/substrate mixture. For Time Zero and 9-day treatment plates, removed all plating media. Added 100 μl fresh media/well. Added 100 μl CellTiter-Glo® Reagent per well. Mixed contents for 10 min on an orbital shaker to lyse cells. Recorded luminescence with Perkin Elmer Envision 2105 machine. Analyzed the data with GraphPad software.

The nature of series [3]: PK data (IV/PO) in cynomolgus monkey. The following applies: in vivo; for clearance: read-out: Observed CL (converted); for Vd: read-out: Vss; for bioavailability: PO 0.5 mg/Kg.
Setting [4] is: brain Kp = [brain]/[plasma], cyno, read-out: Cyno brain Kp.
Where [5] appears, read: brain Kpu,u = Kp * (plasma free/rat brain free), read-out: Cyno brain Kpu,u.

T1 sequence (Q12809 whole entry): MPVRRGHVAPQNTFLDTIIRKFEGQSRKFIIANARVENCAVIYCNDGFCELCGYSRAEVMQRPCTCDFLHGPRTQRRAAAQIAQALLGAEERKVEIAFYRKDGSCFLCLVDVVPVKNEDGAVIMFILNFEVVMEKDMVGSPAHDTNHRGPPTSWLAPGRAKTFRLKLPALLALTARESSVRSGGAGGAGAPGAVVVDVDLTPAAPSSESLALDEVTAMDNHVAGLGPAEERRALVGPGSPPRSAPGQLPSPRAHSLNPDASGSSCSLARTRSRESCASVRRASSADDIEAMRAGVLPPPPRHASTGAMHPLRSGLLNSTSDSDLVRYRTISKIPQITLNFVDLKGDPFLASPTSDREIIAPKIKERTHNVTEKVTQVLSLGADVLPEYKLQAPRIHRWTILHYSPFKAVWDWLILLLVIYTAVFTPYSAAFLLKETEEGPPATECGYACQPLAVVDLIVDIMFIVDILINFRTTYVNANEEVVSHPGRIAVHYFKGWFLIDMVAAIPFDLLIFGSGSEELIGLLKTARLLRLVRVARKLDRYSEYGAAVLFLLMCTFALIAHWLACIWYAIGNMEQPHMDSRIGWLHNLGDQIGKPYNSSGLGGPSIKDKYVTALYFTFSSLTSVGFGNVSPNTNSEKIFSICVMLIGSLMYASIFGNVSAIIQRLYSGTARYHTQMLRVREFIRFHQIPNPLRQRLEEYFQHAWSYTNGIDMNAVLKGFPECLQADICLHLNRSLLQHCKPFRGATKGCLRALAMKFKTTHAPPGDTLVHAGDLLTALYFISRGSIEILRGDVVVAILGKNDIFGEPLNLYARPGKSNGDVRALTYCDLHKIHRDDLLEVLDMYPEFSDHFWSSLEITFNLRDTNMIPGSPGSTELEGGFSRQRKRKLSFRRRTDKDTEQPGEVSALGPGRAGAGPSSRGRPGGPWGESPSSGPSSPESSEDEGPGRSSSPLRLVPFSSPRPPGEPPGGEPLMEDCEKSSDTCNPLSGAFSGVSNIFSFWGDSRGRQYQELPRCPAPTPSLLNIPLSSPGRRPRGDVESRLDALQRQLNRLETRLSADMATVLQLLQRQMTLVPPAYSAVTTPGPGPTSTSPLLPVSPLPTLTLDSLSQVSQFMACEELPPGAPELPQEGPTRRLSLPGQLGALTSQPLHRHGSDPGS

In the case of `C[C@H]1CN(C(=O)c2cc3c(cc2F)nc(N)c2cncn23)[C@H]2c3ccc(C(F)(F)F)cc3C[C@H]2O1` (single isomer, unassigned) [Ff-81], in series [1] (setting [4]), the Kp was 0.96. For the same molecule, the Kp in series [1] (setting [5]) was found to be 0.13. Also, the IC50 at hERG ion channel was found to be 27700 nM. In series [2], this molecule returned a GI50 of 19 nM. Also, in series [3] (IV 0.5 mg/Kg), the half-life is 16 h, the clearance was 3 mL/min/kg and the Vd stood at 1.77 L/kg. In series [3], the bioavailability came out at 123%.
As for `Nc1nc2cc(F)c(C(=O)N3CCO[C@@H]4Cc5cc(C(F)(F)F)ccc5[C@@H]43)cc2n2cncc12` (single isomer, unassigned) [Ff-82], the half-maximal inhibitory concentration (IC50) on hERG ion channel is above 30000 nM.
For the molecule `C[C@@H]1CN(C(=O)c2cc3c(cc2F)nc(N)c2cncn23)[C@H]2c3ccc(OC(F)(F)F)cc3C[C@H]2O1` (single isomer, unassigned) [Ff-183], the GI50 in series [2] worked out at 11 nM.
With `C[C@@H]1CN(C(=O)c2cc3c(cc2F)nc(N)c2cncn23)[C@H]2c3cc(F)c(OC(F)(F)F)cc3C[C@H]2O1` (single isomer, unassigned) [Ff-197], the results for the Kp in series [1] (setting [4]) and in series [1] (setting [5]) were 1.2 and 0.28, respectively. In addition, on hERG ion channel, it took 11900 nM to reach half-maximal inhibition (IC50).
Regarding `Nc1nc2cnc(C(=O)N3CC[C@H]4C[C@@H]3c3c(F)cc(C(F)(F)F)cc3O4)cc2n2cncc12` (single isomer, unassigned) [Ff-694], the IC50 on hERG ion channel amounted to 16200 nM.
For `Nc1nc2cnc(C(=O)N3CCC[C@@H]4Oc5cc(C(F)(F)F)cc(F)c5[C@@H]43)cc2n2cncc12` (single isomer, unassigned) [Fg-53], the Kp in series [1] (setting [4]) came out at 0.99. For the same molecule, the Kp in series [1] (setting [5]) was found to be 0.16. The IC50 against hERG ion channel was 9950 nM. Besides, the GI50 in series [2] was determined as 6 nM. For the same molecule, in series [3] (IV 0.25 mg/Kg), the half-life is 15.4 h, the clearance is 2 mL/min/kg and the Vd was 2.53 L/kg. Further, the bioavailability in series [3] is 84%.
For `Nc1nc2cnc(C(=O)N3CCC[C@@H]4Oc5cc(OC(F)(F)F)cc(F)c5[C@@H]43)cc2n2cncc12` (single isomer, unassigned) [Fg-55], the Kp in series [1] (setting [4]) amounted to 0.95. Further, in series [1] (setting [5]), the Kp came out at 0.12. The molecule also gave an IC50 against hERG ion channel of 6200 nM. The molecule further displayed a GI50 in series [2] of 10 nM. For the same molecule, in series [3] (IV 0.25 mg/Kg), the half-life is 10.7 h, the clearance is 2.17 mL/min/kg and the Vd stood at 2 L/kg.
Turning to `Nc1nc2cc(F)c(C(=O)N3CCC[C@@H]4Oc5cc(C(F)(F)F)ccc5[C@@H]43)cc2n2cncc12` [Ff-104, (4-amino-7-fluoroimidazo[1,5-a]quinoxalin-8-yl)((4aS,9bS)-7-(trifluoromethyl)-3,4,4a,9b-tetrahydrobenzofuro[3,2-b]pyridin-1(2H)-yl)methanone], the results for the Kp in series [1] (setting [4]) and in series [1] (setting [5]) were 1.78 and 0.19, respectively. Also, 14200 nM corresponded to half-maximal inhibition against hERG ion channel (IC50). In series [2], this molecule gave a GI50 of 4 nM. Further, the half-life was 10.4 h in series [3] (IV 0.25 mg/Kg) and 11 h in series [3] (IV 0.5 mg/Kg). Moreover, the values for the clearance in series [3] (IV 0.25 mg/Kg) and in series [3] (IV 0.5 mg/Kg) were 1.67 mL/min/kg and 3.17 mL/min/kg, respectively. For the same molecule, the Vd in series [3] (IV 0.25 mg/Kg) was found to be 1.47 L/kg; in series [3] (IV 0.5 mg/Kg) it was 1.7 L/kg. Further, the bioavailability in series [3] was determined as 108%.
Regarding `Nc1nc2cnc(C(=O)N3CCC[C@@H]4Oc5cc(C(F)(F)F)ccc5[C@@H]43)cc2n2cncc12` [Ff-110, (4-aminoimidazo[1,5-a]pyrido[3,4-e]pyrazin-8-yl)((4aS,9bS)-7-(trifluoromethyl)-3,4,4a,9b-tetrahydrobenzofuro[3,2-b]pyridin-1(2H)-yl)methanone], the figures for the Kp in series [1] (setting [4]) and in series [1] (setting [5]) were 0.76 and 0.1, respectively. This molecule showed a concentration for half-maximal inhibition (IC50) at hERG ion channel of 8470 nM. This molecule displayed a GI50 in series [2] of 7 nM.
In the case of `Nc1nc2ccc(C(=O)N3CCC[C@@H]4Oc5cc(C(F)(F)F)ccc5[C@@H]43)cc2n2cncc12` [Ff-111, (4-aminoimidazo[1,5-a]quinoxalin-8-yl)((4aS,9bS)-7-(trifluoromethyl)-3,4,4a,9b-tetrahydrobenzofuro[3,2-b]pyridin-1(2H)-yl)methanone], the Kp in series [1] (setting [4]) came to 1.1. Besides, in series [1] (setting [5]), the Kp was 0.23. Moreover, the midpoint of inhibition on hERG ion channel, the IC50, lay at 6700 nM. The same molecule gave a GI50 in series [2] of 8 nM. Further, in series [3] (IV 0.33 mg/Kg), the half-life was 5.9 h, the clearance is 2.5 mL/min/kg and the Vd came to 1.29 L/kg.
For `Cc1ncc2c(N)nc3cnc(C(=O)N4CCC[C@@H]5Oc6cc(OC(F)(F)F)ccc6[C@@H]54)cc3n12` [Ff-340, (4-amino-1-methylimidazo[1,5-a]pyrido[3,4-e]pyrazin-8-yl)((4aS,9bS)-7-(trifluoromethoxy)-3,4,4a,9b-tetrahydrobenzofuro[3,2-b]pyridin-1(2H)-yl)methanone], the Kp in series [1] (setting [4]) amounted to 1.1. For the same molecule, the Kp in series [1] (setting [5]) is 0.32. Besides, the 50% growth inhibitory concentration (GI50) in series [2] amounted to 17 nM. Further, in series [3] (IV 0.33 mg/Kg), the half-life was 5.8 h, the clearance is 4 mL/min/kg and the Vd turned out to be 1.9 L/kg.
Molecule `Nc1nc2cnc(C(=O)N3CCC[C@@H]4Oc5cc(OC(F)(F)F)ccc5[C@@H]43)cc2n2cncc12` [Ff-341, (4-aminoimidazo[1,5-a]pyrido[3,4-e]pyrazin-8-yl)((4aS,9bS)-7-(trifluoromethoxy)-3,4,4a,9b-tetrahydrobenzofuro[3,2-b]pyridin-1(2H)-yl)methanone] displayed a GI50 in series [2] of 13 nM. Moreover, in series [3] (IV 0.25 mg/Kg), the half-life was 8 h, the clearance was 3.33 mL/min/kg and the Vd turned out to be 2.15 L/kg.
For `Cc1ncn2c1c(N)nc1cnc(C(=O)N3CCC[C@@H]4Oc5cc(C(F)(F)F)ccc5[C@@H]43)cc12` [Ff-499, (4-amino-3-methylimidazo[1,5-a]pyrido[3,4-e]pyrazin-8-yl)((4aS,9bS)-7-(trifluoromethyl)-3,4,4a,9b-tetrahydrobenzofuro[3,2-b]pyridin-1(2H)-yl)methanone], the Kp in series [1] (setting [4]) is 2.4. Also, the Kp in series [1] (setting [5]) came out at 0.51. Besides, it took 17500 nM to reach half-maximal inhibition on hERG ion channel (IC50). In series [3] (IV 0.33 mg/Kg), the half-life is 1.39 h, the clearance was 24.5 mL/min/kg and the Vd was determined as 1.93 L/kg.
Take `Nc1nc2cnc(C(=O)N3CC4(CC4)C[C@@H]4Oc5cc(C(F)(F)F)ccc5[C@@H]43)cc2n2cncc12` [Ff-648, (4-aminoimidazo[1,5-a]pyrido[3,4-e]pyrazin-8-yl)((4aS,9bS)-7-(trifluoromethyl)-4a,9b-dihydro-2H-spiro[benzofuro[3,2-b]pyridine-3,1′-cyclopropan]-1(4H)-yl)methanone]: in series [2], halving of growth (GI50) required 9 nM.
